Data reported in article PMC11926411 (Cell Structure and Function, 2019).

What was measured:
[1] = system: class III PI3K Vps34; experiment: Time-lapse confocal imaging of endosomal markers after Vps34 inhibition; conditions: Cos-1 cells, Vps34-IN1 treatment
Description: Cells were imaged with an IX-83 microscope (Olympus, Tokyo, Japan) equipped with a BioPoint MAC6000 filter and shutter control unit (Ludl Electronic Products, Hawthorne, NY, USA), an automated XY-stage (Chuo Precision Industrial, Tokyo, Japan), an sDISK spinning disk confocal microscope (Andor Technology, Belfast, UK), and a Rolera EM-C^2 electron multiplying cooled charge-coupled device camera (QImaging, Surrey, BC, Canada). For epifluorescence microscopy, cells were illuminated with a SOLA Light Engine (Lumencor, Beaverton, OR, USA) and the following excitation and emission filters were used: FF02-438/24 and FF01-483/32 (Semrock, Rochester, NY, USA) for CFP; BP470-490 and BP510-550 (Olympus) for FITC; FF02-438/24 and FF01-542/27 for FRET; and BP520-550 and BA580IF (Olympus) for Alexa Fluor 594 and mRFP. For spinning-disk confocal imaging, cells were illuminated with a four-line (405, 488, 561, and 633 nm) laser module (Spectral Applied Research, Hamilton, ON, Canada) and the following emission filters were used: FF01-483/32 for CFP, FF01-542/27 for FRET, and BA580IF for TagRFP. Typical exposure times for 2×2 binning were 0.3 s. […]
Twenty-four hours after transfection, the cells were subjected to time-lapse confocal microscopy. […] P<0.0001 compared with before treatment, as calculated by repeated-measures ANOVA.

[2] = system: Ras-PI3K complex; format: cell-based; conditions: Cos-1 cells, VN-H-Ras G12V, time-lapse confocal after Vps34-IN1; n=12
Description: Imaging of BiFC and FRET, and their data analysis were performed essentially as described previously ([Fujioka et al., 2013]; [Ohba et al., 2003]; [Tsutsumi et al., 2009]). In brief, cells plated on a collagen-coated, 35-mm-diameter glass-base dish were transfected with expression vectors. After 24 hours, cells were serum-starved in phenol red-free DMEM/F12 (Thermo Fisher Scientific) for 4 hours and placed in a stage-top incubation chamber (Live Cell Instrument, Soul, Korea) that was maintained at 37°C. Beginning at 10 min, cells were stimulated with 100 ng/ml EGF. BiFC images were acquired using a spinning disk mode, whereas FRET images were obtained using epifluorescence mode. To represent FRET efficacy, the FRET/CFP emission ratio was calculated as the quotient of background-subtracted FRET and CFP images. To stabilize jittery image stacks of time-lapse data set, ‘Image Stabilizer’ plug-in of ImageJ (https://imagej.nih.gov/ij) was used. MetaMorph software converts image stacks of time-lapse data set into one QuickTime movie.
Vesicles positive for a BiFC signal (from Ras-PI3K complex) or TagRFP (EEA-1) were extracted with the use of the ‘Top Hat’ module of MetaMorph software, and colocalization of the Ras-PI3K complex with EEA-1 was quantified with the use of the ‘measure colocalization’ function of the software.

SMILES: CC(C)(O)CNc1ncc(-c2ccnc(Nc3ccnc(Cl)c3)n2)c(CC2CC2)n1 [Vps34-IN1]
- Endosomal localization of CFP-tagged Rab5 [1]: accumulated in the endosome
- Fluorescence signal in endosomes of RFP-tagged EEA-1 [1]: dramatically dispersed
- Amount of the Ras-PI3K complex in the endosome (BiFC) [2]: partially, but significantly reduced
